Residues, ends and D or L forms follow the SMILES beside them. Groups on a side chain read outwards from the residue. No end group written: not given here. *: point of attachment. Succinimide(1-Et,3-yl) = CCN1C(=O)CC(*)C1=O
Legend:
[1] = biological target: T1, dog NMUR2 (Canis lupus familiaris, UniProt A0A8I3MN59); assay: FLIPR calcium mobilization assay, dog NMUR2 cell line; type: cell-based; details: for EC50: dog NMUR2, FLIPR
T1 construct: expressed in transfected cells
Excerpt: (§1) Human, mouse or rat cDNAs encoding NMUR1 or NMUR2 (as described in Howard et al. Nature 406: 70-74 (2000) were subcloned in pcDNA5 (Invitrogen) and transfected into FLP-In CHO cells and HEK-293 FLP-In cells purchased from Invitrogen (Carlsbad, Calif.) using lipofectamine (Invitrogen). The Flp-In system allows integration and expression of a particular gene of interest at a specific genomic location utilizing the Flp recombinase from yeast. The transfected cells were selected by growth in medium containing 200 μg/mL hygromycin (Invitrogen). Populations were frozen at early passage numbers, and these stocks were used for further studies. Stable clones that expressed the mRNAs were identified functionally by FLIPR as well as by RT-PCR. […] Two different rodent NMUR1 cell lines were thus generated: one with the codon as predicted from the genomic databases and another cell line with an engineered methionine (ATG) as the start codon. The dog NMU receptors were also cloned from intestine RNA (NMUR1) and brain (NMUR2) and stable cell lines were generated as used for the human and rodent cell lines. […] To ensure high levels of expression in a heterologous system, a dog NMUR1 cell line was generated that contains an ATG as the start codon. Additionally, stable cell lines expressing the human receptors were generated in HEK-293/aeq 17 cells which stably express the aequorin gene under the CMV promoter. The human NMUR2 cDNA was cloned into pcDNA3.1 and human NMUR1 was subcloned into pIRES-puro (Clontech, Mountain View, Calif.), after transfection cells were selected in media containing G418 and either hygromycin (NMUR2) or puromycin (NMUR1).
(§2) The NMU receptors signal primarily through Gαq/11 proteins; therefore calcium mobilization assays can be utilized for functional activity.
(§3) Stable cell lines expressing human and or rodent NMUR1 or human NMUR2 receptors are plated at a density of 12,000 cells per well overnight on poly-lysine coated 384-well black-walled plates. The following day, the media is removed from the plates and the cells were subsequently loaded with Fluo-3 (Molecular Probes), a calcium sensitive dye, diluted in FLIPR buffer (1× Hank's buffered saline containing 20 mM HEPES, 0.1% BSA, 2.5 mM probenecid (Sigma) and 1.6 mM TR40). All reagents are from Invitrogen unless otherwise noted. Peptide stocks are resuspended in DMSO at a stock concentration of 2 mM and diluted in FLIPR buffer on the day of the experiment to a 4 μM working stock solution.
(§4) After a 90 minute incubation at room-temperature, cell plates are loaded onto a FLIPR (Molecular Devices) to monitor cellular fluorescence (excitation=488 nm; emission=540 nm) before and after compound/peptide addition. Eight to twelve point dose responses are tested on NMUR-expressing cell lines using FLIPR with 1 μM peptide as the highest dose. The response after peptide addition is taken as the maximum fluorescence units minus the fluorescence immediately prior to stimulation for each well. EC50 values are calculated using GraphPad Prism (San Diego, Calif.) software.
(§5) Percent activity refers to the maximum response at 1 μM compared to the human NMU-25 response at the same concentration.

[2] = biological target: T2, human NMUR1 (Homo sapiens, UniProt Q9HB89); assay: FLIPR calcium mobilization assay, human NMUR1-expressing cell line; type: cell-based; details: for EC50: human NMUR1, FLIPR
T2 construct: expressed in transfected cells; host or cells: FLP-In CHO cells and HEK-293 FLP-In cells (pcDNA5)
T2 sequence (Q9HB89 1-426): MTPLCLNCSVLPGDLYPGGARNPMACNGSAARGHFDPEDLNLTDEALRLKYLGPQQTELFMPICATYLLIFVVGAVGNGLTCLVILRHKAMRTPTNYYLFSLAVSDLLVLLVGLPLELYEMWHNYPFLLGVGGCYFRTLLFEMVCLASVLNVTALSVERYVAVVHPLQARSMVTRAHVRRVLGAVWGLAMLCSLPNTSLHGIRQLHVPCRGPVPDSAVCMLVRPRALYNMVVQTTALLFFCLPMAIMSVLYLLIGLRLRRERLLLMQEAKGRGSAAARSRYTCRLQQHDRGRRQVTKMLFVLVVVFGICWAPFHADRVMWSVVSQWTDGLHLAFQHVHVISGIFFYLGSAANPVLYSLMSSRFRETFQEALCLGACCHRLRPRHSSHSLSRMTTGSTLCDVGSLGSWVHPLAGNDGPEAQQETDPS
Excerpt: as §1, §2, §3, §4, §5

[3] = biological target: T3, mouse NMUR1-ATG (Mus musculus, UniProt O55040); assay: FLIPR calcium mobilization assay, mouse NMUR1-ATG cell line; type: cell-based; details: for EC50: FLIPR
T3 construct: expressed in transfected cells; host or cells: FLP-In CHO cells and HEK-293 FLP-In cells (pcDNA5)
T3 sequence (O55040 1-428): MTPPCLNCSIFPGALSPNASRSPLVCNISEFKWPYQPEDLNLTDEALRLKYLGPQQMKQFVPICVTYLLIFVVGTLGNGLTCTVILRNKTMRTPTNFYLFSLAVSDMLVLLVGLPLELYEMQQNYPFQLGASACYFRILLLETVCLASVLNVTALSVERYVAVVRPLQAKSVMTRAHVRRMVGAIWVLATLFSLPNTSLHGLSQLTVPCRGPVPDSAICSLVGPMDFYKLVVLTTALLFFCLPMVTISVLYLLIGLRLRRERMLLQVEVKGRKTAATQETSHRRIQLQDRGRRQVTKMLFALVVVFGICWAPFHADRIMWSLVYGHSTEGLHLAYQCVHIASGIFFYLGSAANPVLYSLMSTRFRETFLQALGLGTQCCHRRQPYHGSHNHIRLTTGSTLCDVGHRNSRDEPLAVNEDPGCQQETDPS
Excerpt: as §1, §2, §3, §4, §5

[4] = test system: dog NMUR1-ATG; assay: FLIPR calcium mobilization assay, dog NMUR1-ATG cell line; type: cell-based; details: for EC50: FLIPR
Excerpt: as §1, §2, §3, §4, §5

[5] = biological target: T4, mouse NMUR2 (Mus musculus, UniProt Q8BZ39); assay: FLIPR calcium mobilization assay, mouse NMUR2 cell line; type: cell-based; details: for EC50: mouse NMUR2, FLIPR
T4 construct: expressed in transfected cells; host or cells: FLP-In CHO cells and HEK-293 FLP-In cells (pcDNA5)
Excerpt: as §1, §2, §3, §4, §5

[6] = biological target: T5, human NMUR2 (Homo sapiens, UniProt Q9GZQ4); assay: FLIPR calcium mobilization assay, human NMUR2-expressing cell line; type: cell-based; details: for EC50: human NMUR2, FLIPR
T5 construct: expressed in transfected cells; host or cells: FLP-In CHO cells and HEK-293 FLP-In cells (pcDNA5)
Excerpt: as §1, §2, §3, §4, §5

[7] = test system: wild-type, Nmur1 knockout, Nmur2 knockout and Nmur1/Nmur2 double knockout mice; assay: Acute feeding study in wild-type and Nmur knockout mice; type: in vivo
Procedure: (§6) Ad libitum fed male diet-induced obese mice obtained from Taconic Farms were weighed and dosed either i.p. or s.c. with NMS or NMU at about 30 minutes prior to the onset of the dark phase of the light cycle and provided with a pre-weighed aliquot of high fat diet (D12492: 60% kcal from fat: Research Diets, Inc.), which was then weighed two and 18 hours after the onset of the initial dark phase. Mice were weighed at the 18 hour (overnight) time point.
NMUR1 knockout (Nmur1−/−) mice were generated using standard homologous recombination techniques. Nmur1 mice were subsequently transferred to Taconic Farms where they were either maintained on a 75% C57BL/6×25% 129S6/SvEv mixed genetic background or backcrossed 6 generations to C57BL/6. NMUR2 knockout (Nmur2−/−) mice were licensed from Deltagen Inc., San Mateo, Calif. and subsequently transferred to Taconic Farms were they were either maintained on a 75% C57BL/6×25% 129/OlaHsd mixed genetic background or backcrossed for 7 generations to C57BL/6. NMUR1 and NMUR2 double knockout (Nmur1&2−/−) mice were generated by crossing N6 Nmur1−/− mice to N7 Nmur2−/− mice. Mice were individually housed in Tecniplast cages in a conventional SPF facility. Mice were initially maintained on a regular chow diet and then early in their life were switched to a high fat diet (D12492) with ad libitum access to water in a 12-h light/12-h dark cycle.
The anorectic effects of NMS1 were mediated by both the NMUR1 and NMUR2 receptors. […] Effects on food intake (FIG. 9A) and body weight (FIG. 9B) are shown.

[8] = test system: mice; assay: Acute subcutaneous administration of NMS analogs, daily food intake and body weight; type: in vivo; details: for overnight food intake: FIG. 6A; for duration of significant reduction of food intake: daily food intake over a four-day period
Procedure: as §6
The efficacy of various PEGylated NMS analogs were evaluated using the aforementioned assays. The PEGylated NMS analogs evaluated were NMS1 and NMS4 (See Table 1).
NMS1, NMS3, and NMS4 were administered subcutaneously and daily food intake was measured over a four-day period.

[9] = test system: male diet-induced obese mice; assay: Acute feeding study with NMU and NMS; type: in vivo; details: acute peripheral administration (i.p. or s.c.), FIG. 1A
Procedure: as §6

[10] = maximum response at 1 μM compared to the human NMU-25 response at the same concentration
[11] = acute subcutaneous administration
[12] = acute subcutaneous administration, FIG. 6B

T5 sequence (Q9GZQ4 whole entry): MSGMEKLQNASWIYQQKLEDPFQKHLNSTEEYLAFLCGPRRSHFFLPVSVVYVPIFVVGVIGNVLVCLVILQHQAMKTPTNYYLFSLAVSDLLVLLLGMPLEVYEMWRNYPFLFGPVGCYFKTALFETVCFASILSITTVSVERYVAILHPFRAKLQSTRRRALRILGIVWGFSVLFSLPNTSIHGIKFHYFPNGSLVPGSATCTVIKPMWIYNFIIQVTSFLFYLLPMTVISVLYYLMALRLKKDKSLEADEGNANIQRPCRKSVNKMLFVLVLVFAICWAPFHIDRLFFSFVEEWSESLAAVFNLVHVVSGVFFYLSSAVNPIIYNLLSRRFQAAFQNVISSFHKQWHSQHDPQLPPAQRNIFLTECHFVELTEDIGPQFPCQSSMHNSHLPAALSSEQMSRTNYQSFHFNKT
T1 sequence (A0A8I3MN59 1-378): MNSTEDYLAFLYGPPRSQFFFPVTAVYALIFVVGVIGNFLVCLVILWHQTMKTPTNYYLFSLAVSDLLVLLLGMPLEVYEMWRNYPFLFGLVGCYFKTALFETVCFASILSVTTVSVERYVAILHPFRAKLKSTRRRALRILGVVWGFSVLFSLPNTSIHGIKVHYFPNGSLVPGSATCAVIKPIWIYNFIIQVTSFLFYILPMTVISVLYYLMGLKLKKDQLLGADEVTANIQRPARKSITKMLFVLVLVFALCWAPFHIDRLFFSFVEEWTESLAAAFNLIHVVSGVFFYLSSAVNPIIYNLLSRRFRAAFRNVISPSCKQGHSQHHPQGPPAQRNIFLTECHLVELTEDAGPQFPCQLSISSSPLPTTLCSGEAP
T4 sequence (Q8BZ39 whole entry): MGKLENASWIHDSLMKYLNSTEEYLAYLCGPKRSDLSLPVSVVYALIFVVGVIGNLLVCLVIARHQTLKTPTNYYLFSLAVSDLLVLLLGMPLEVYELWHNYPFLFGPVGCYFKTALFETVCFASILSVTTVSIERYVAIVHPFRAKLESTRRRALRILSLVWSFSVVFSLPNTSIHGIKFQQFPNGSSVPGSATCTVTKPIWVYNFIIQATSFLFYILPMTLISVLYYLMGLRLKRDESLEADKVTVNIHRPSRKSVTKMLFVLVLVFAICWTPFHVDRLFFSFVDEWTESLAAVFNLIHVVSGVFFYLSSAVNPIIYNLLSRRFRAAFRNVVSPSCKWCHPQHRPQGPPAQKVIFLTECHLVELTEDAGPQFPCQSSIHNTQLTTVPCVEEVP

EC50 [1] | EC50 [2] | EC50 [3] | EC50 [4] | EC50 [5] | EC50 [6] | Compound | overnight food intake [8, 11] | body weight [8, 12] | duration of significant reduction of food intake [8, 11] | further results
2.2 nM | 11.4 nM | 8.7 nM | 11.6 nM | 11.9 nM | 18.1 nM | CC[C@H](C)[C@H](NC(=O)[C@H](CSC1CC(=O)N(CC)C1=O)NC(C)=O)C(=O)N[C@@H](CC(C)C)C(=O)N[C@@H](CCC(N)=O)C(=O)N[C@@H](CCCNC(=N)N)C(=O)NCC(=O)N[C@@H](CO)C(=O)NCC(=O)N[C@H](C(=O)N[C@@H](C)C(=O)N[C@@H](C)C(=O)N[C@H](C(=O)N[C@@H](CC(=O)O)C(=O)N[C@@H](Cc1ccccc1)C(=O)N[C@H](C(=O)N[C@@H](CCCCN)C(=O)N[C@@H](CCCCN)C(=O)N[C@@H](CC(=O)O)C(=O)N[C@@H](Cc1c[nH]cn1)C(=O)N[C@H](C(=O)N[C@@H](C)C(=O)N[C@H](C(=O)N[C@@H](Cc1c[nH]c2ccccc12)C(=O)NCC(=O)N[C@@H](CCCNC(=N)N)C(=O)N1CCC[C@H]1C(=O)N[C@@H](Cc1ccccc1)C(=O)N[C@@H](Cc1ccccc1)C(=O)N[C@@H](CC(C)C)C(=O)N[C@@H](Cc1ccccc1)C(=O)N[C@@H](CCCNC(=N)N)C(=O)N1CCC[C@H]1C(=O)N[C@@H](CCCNC(=N)N)C(=O)N[C@@H](CC(N)=O)C(N)=O)[C@@H](C)O)[C@@H](C)O)[C@@H](C)O)C(C)C)[C@@H](C)O (stereo partly shown) [NMS3] (Ac-C(Succinimide(1-Et,3-yl))ILQRGSGTAAVDFTKKDHTATWGRPFFLFRPRN-NH2) |  |  |  | % Activity ([1]; dog NMUR2, maximum response at 1 μM compared to the human NMU-25 response at the same concentration): 107%; % Activity ([2]; human NMUR1, maximum response at 1 μM compared to the human NMU-25 response at the same concentration): 97%; % Activity [3, 10]: 98%; % Activity [4, 10]: 101%; % Activity ([5]; mouse NMUR2, maximum response at 1 μM compared to the human NMU-25 response at the same concentration): 108%; % Activity ([6]; human NMUR2, maximum response at 1 μM compared to the human NMU-25 response at the same concentration): 105%
22.5 nM | 141 nM | 589 nM | 18.5 nM | 29.1 nM | 397 nM | Ac-C2ILQRGSGTAAVDFTKKDHTATWGRPFFLFRPRN-CONH2 (Ac-C([maleimide-(PEG)2 40 kDa])ILQRGSGTAAVDFTKKDHTATWGRPFFLFRPRN-NH2) [NMS1, C2 = Cys(PEG)240 kDa, cysteine PEGylated via the side-chain thiol with a branched PEG] | significantly reduced | Significant reductions | three days post-dose | effects on food intake and body weight ([7]; Nmur2 knockout animals, FIGS. 9A and 9B): only overnight effects; food intake ([7]; acute administration, Nmur1/Nmur2 double knockout animals, FIG. 8A): no effect; body weight ([7]; acute administration, Nmur1/Nmur2 double knockout animals, FIG. 8B): no effect; anorectic efficacy ([7]; acute administration, wild-type animals): highly efficacious; body weight ([8]; NMS1 compared to NMU9, FIG. 7B): Significant reductions; food intake ([8]; dose response, NMS1 versus NMU9, FIG. 7A): reduced food intake for at least three days post-dose in a dose-dependent manner
3.1 nM | 73.9 nM | 66.2 nM | 13.1 nM | 19.4 nM | 103 nM | Ac-C4ILQRGSGTAAVDFTKKDHTATWGRPFFLFRPRN-CONH2 (Ac-C([maleimide-PEG 40 kDa])ILQRGSGTAAVDFTKKDHTATWGRPFFLFRPRN-NH2) [NMS4, C4 = Cys(PEG)40 kDa, cysteine PEGylated via the side-chain thiol with a linear PEG] | significantly reduced | Significant reductions | two days post-dose | 
 |  |  |  |  |  | NMU: Neuromedin U; full length 25-mer (NMU-25) in humans (FRVDEEFQSPFASQSRGYFLFRPRN; ends and bridges not checked; UniProt P48645 142-166, looked up) |  |  |  | food intake [9]: dose-dependently reduced
